Legend:
[1] = Histopathology of tumors, kidneys, livers and spleens in the 4T1 in vivo study; parameters: species or system BALB/c mice
Text: Tissue samples of tumors, kidneys, livers and spleens were fixed in 4% (v/v) formalin. After fixation, tissues were embedded in paraffin blocks, and 4 µm thick sections were obtained, mounted on glass slides, stained with Hematoxylin Eosin, and analyzed by using an Olympus BX43 microscope (Olympus, Tokyo, Japan). All slides were scanned with a Leica Biosystems Aperio AT2 with ×400 magnification (n = 3 per group). Virtual slides generated from Leica Aperio AT2 (Wetzlar, Germany) were additionally analyzed with Aperio ImageScope (v12.4.3.5008) and with FIJI-ImageJ software.

[2] = test system: MDA-MB-468; assay: Autophagy induction, acridine orange staining, flow cytometry; assay type: cell-based, human; parameters: key: ↑: induction; ↓: inhibition; ↔: no effect; settings: MDA-MB-468, IC50 for 72 h
Procedure: (§1) Cells were seeded in 6-well plates and incubated for 24 h under standard culture conditions. […] For the analyses of autophagy induction, the cell suspension was centrifuged for 3 min at 800 rpm, and the cell pellet was stained with 1 mL of AO working solution (1 µg/mL of AO in growth medium). Cells were incubated for 15 min under standard culture conditions. The cell suspension was centrifuged for 3 min at 800 rpm, and the cell pellet was washed with 1 mL of fresh PBS. Finally, all samples were analyzed by using flow cytometry (FACSAria III, BD Biosciences, New Jersey, USA).

[3] = test system: MCF-7; assay: as above; assay type: cell-based, human; parameters: key: ↑: induction; ↓: inhibition; ↔: no effect; settings: MCF-7, IC50 for 72 h
Procedure: as §1

[4] = test system: BT-474; assay: as above; assay type: cell-based, human; parameters: key: ↑: induction; ↓: inhibition; ↔: no effect; settings: BT-474, IC50 for 72 h
Procedure: as §1

[5] = test system: HCC1937; assay: as above; assay type: cell-based, human; parameters: key: ↑: induction; ↓: inhibition; ↔: no effect; settings: HCC1937, IC50 for 72 h
Procedure: as §1

[6] = test system: MDA-MB-468; assay: Apoptosis analysis, AnnV/PI staining, flow cytometry; assay type: cell-based, human; settings: MDA-MB-468, IC50 for 72 h
Procedure: (§2) Cells were seeded in 6-well plates and incubated for 24 h under standard culture conditions. […] For apoptosis analyses, the cell suspension was centrifuged for 3 min at 800 rpm, and the cell pellet was stained by using 100 µL of AnnV/PI working solution (5 µL of AnnV, 2 µL of PI in 100 µL of PBS) for 15 min at RT and protected from light. The staining was terminated by the addition of 900 µL of annexin binding buffer. Finally, all samples were analyzed by using flow cytometry (FACSAria III, BD Biosciences, New Jersey, USA).

[7] = test system: MCF-7; assay: as above; assay type: cell-based, human; settings: MCF-7, IC50 for 72 h
Procedure: as §2

[8] = test system: BT-474; assay: as above; assay type: cell-based, human; settings: BT-474, IC50 for 72 h; control cells 20%
Procedure: as §2

[9] = test system: HCC1937; assay: as above; assay type: cell-based, human; settings: HCC1937, IC50 for 72 h; control cells 19%
Procedure: as §2

[10] = test system: MDA-MB-468; assay: Crystal violet (CV) cell viability assay, IC50 determination; assay type: cell-based, human
Procedure: For initial testing of the cytotoxic effect of the available glycophymine compounds (Table S2), cells were treated with compound in three concentrations: 1, 10 and 50 µM. Cells were seeded in 96-well plates and allowed to adhere overnight. Then they were treated for 72 h under standard culture conditions. […] For IC50 determination, the compounds were tested at seven concentrations (0.78, 1.56, 3.13, 6.25, 12.5, 25 and 50 µM). Subsequently, the cell viability was determined by using the crystal violet (CV) assay. Moreover, the selected compounds were tested against the mouse breast cancer cell line 4T1 (TNBC) as well. The compounds were prepared initially to obtain a stock solution of 20 mM in DMSO. Later, the working solutions were prepared by mixing the required amount of DMSO stock with the optimal medium for each cell line. The DMSO concentration in the final solution was always maintained lower than 0.5% to avoid any DMSO-derived side effects.
For CV assays, after 72 h treatment, the treatment medium was discarded from the 96-well plates, and the cells were washed using 50 µL of PBS. Cells were fixed by adding 50 µL of 4% (v/v) paraformaldehyde (PFA) in PBS for 15 min at room temperature (RT). Afterwards, PFA was discarded, and the plates were dried for 15 min at RT. 50 µL of CV working solution (0.1% w/v CV in PBS) were added to the wells, followed by 15 min incubation at RT. Subsequently, the CV solution was discarded, and the plates were washed using aqua bidest. (ddH2O) to remove any remaining CV solution. The plates were left to dry overnight at RT, and then 50 µL of 33% (v/v) acetic acid in ddH2O were added to each well. Finally, the absorbance was measured at 570 nm by using a SpectraMax M5 plate reader (Molecular Devices, California, USA) and at 670 nm as background wavelength. […] Additionally, gefitinib, an approved EGFR inhibitor of the quinazoline family, was tested as anti-proliferative positive control. The data represent the mean ± standard deviation derived from three independent biological replicates. Dose–response curves were generated by four-parametric non-linear regression analysis using the GraphPad Prism software (version: 10.1, San Diego, CA, USA). Based on that, IC50 values and standard deviations were calculated for each replicate individually.

O=c1[nH]c(Nc2ccc([N+](=O)[O-])cc2)nc2ccccc12 [Compound 19, 4′-nitro-9-aza-glycophymine]
morphological changes in kidney, spleen and liver tissue ([1]; 5 and 20 mg/kg i.p., day 21, compared to control group): did not cause significant morphological changes
extent of tumor necrosis ([1]; treated animals in comparison to the control group, day 21): a higher extent of necrosis was found in treated animals
Autophagy [2]: ↔
Autophagy [3]: ↔
Autophagy [4]: ↔
Autophagy [5]: ↔
induction of apoptotic cell death [6]: did neither activate caspases nor apoptotic cell death
induction of apoptotic cell death [7]: did neither activate caspases nor apoptotic cell death
percentage of apoptotic cells [8]: 51%
percentage of apoptotic cells [9]: 47%
toxicity against MDA-MB-468 in comparison to gefitinib ([10]; 72 h, Fig. S12): nearly three times higher toxicity
IC50 ([10]; Homo sapiens, MDA-MB-468, 72 h treatment, mean ± SD): 5.8 ± 0.3 µM

From publication PMC11568214, “The impact of 9-azaglycophymine and phenylguanidine derivatives on the proliferation of various breast cancer cell lines in vitro and in vivo” (Scientific Reports, 2024)
